This passage reports IC50 results from patent publication US11028090B2 (Dong Wha Pharm. Co., Ltd., priority 2017, dated 2021).

For the assay, the target named is BRD4 (BD1+BD2) bromodomain (Homo sapiens (Human), UniProt O60885). As to the kind of experiment: BRD4 binding inhibition (AlphaScreen, GST-BRD4 vs tetraacetylated histone H4 peptide). In outline: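 GST-BRD4 (BD1+BD2) and biotinylated tetraacetyl-histone H4 peptide, each at 100 nM in HEPES pH 7.4 buffer with BSA and DTT, were combined with compound. Glutathione acceptor and streptavidin donor beads were added, then incubated 30 min at room temperature in the dark. Read-out was AlphaScreen signal.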

Setting [1] is: GST-BRD4 (BD1+BD2) vs biotinylated acetyl-histone H4 peptide, AlphaScreen, read-out: BRD4 IC50.
[2] abbreviates: GST-BRD4 (BD1+BD2) / biotinylated acetyl-histone H4 (Lys5,8,12,16) peptide, read-out: IC50, BRD4 binding inhibition.

Molecules are shown by their SMILES. Where a name gives a salt, the structure may show the parent alone. Read-outs that look alike come from different tables or passages of the source.

As for `COCCOc1ccc2c(c1)nc(NCCCCN)c1nnc(C)n12` [Example 364, N^1-[7-(2-methoxy-ethoxy)-1-methyl-[1,2,4]triazolo[4,3-a]quinoxaline-4-yl]-butane-1,4-diamine ditrifluoroacetic acid], under setting [1], the IC50 was 98 nM.
As to `COCCOc1ccc2c(c1)nc(NCCCCNC(=O)C(C)C)c1nnc(C)n12` [Example 376, {4-[7-(2-methoxy-ethoxy)-1-methyl-[1,2,4]triazolo[4,3-a]quinoxaline-4-ylamino]-butyl}-isobutyramide], the IC50 under setting [2] was ≤ 50 nM.
Turning to `COCCOc1ccc2c(c1)nc(NCCCCNC(=O)C1CC1)c1nnc(C)n12` [Example 377, cyclopropane carboxylic acid-{4-[7-(2-methoxy-ethoxy)-1-methyl-[1,2,4]triazolo[4,3-a]quinoxaline-4-ylamino]-butyl}-amide], the IC50 by setting is: under setting [2], ≤ 50 nM; under setting [1], 39 nM.
For the molecule `COCCOc1ccc2c(c1)nc(NCCCCNC(=O)C(C)(C)OC(C)=O)c1nnc(C)n12` [Example 384, acetic acid-1-{4-[7-(2-methoxy-ethoxy)-1-methyl-[1,2,4]triazolo[4,3-a]quinoxaline-4-ylamino]-butylcarbamoyl}-1-methyl-ethylester], the IC50 is, setting by setting: under setting [2], ≤ 50 nM; under setting [1], 41 nM.
Consider `COCCOc1ccc2c(c1)nc(NCCCCNC(=O)C(C)(C)O)c1nnc(C)n12` [Example 385, 2-hydroxy-N-{4-(7-(2-methoxy-ethoxy)-1-methyl-[1,2,4]triazolo[4,3-a]quinoxaline-4-ylamino)-butyl}-2-methyl-propionamide], for which the IC50 is, setting by setting: under setting [2], ≤ 50 nM; under setting [1], 49 nM.
As to `COCCOc1ccc2c(c1)nc(NCCCCNC(=O)COC(C)=O)c1nnc(C)n12` [Example 386, acetic acid-{4-[7-(2-methoxy-ethoxy)-1-methyl-[1,2,4]triazolo[4,3-a]quinoxaline-4-ylamino]-butylcarbamoyl}-methylester], the IC50 under setting [1] is 78 nM.
As for `COCCOc1ccc2c(c1)nc(NCCCCNC(=O)C(C)(C)C(F)(F)F)c1nnc(C)n12` [Example 392, 3,3,3-trifluoro-N-{4-[7-(2-methoxy-ethoxy)-1-methyl-[1,2,4]triazolo[4,3-a]quinoxaline-4-ylamino]-butyl}-2,2-dimethyl-propionamide], the IC50 runs as follows: under setting [2], ≤ 10 nM; under setting [1], 9 nM.
Taken in the same sequence, the figures for `CCOC(=O)CC(=O)NCCCCNc1nc2cc(OCCOC)ccc2n2c(C)nnc12` [Example 394, N-{4-[7-(2-methoxy-ethoxy)-1-methyl-[1,2,4]triazolo[4,3-a]quinoxaline-4-ylamino]-butyl}-malonamic acid ethylester] were ≤ 50 nM and 34 nM.
Turning to `COCCOc1ccc2c(c1)nc(NCCCCNC(=O)[C@@H](NC(=O)CC(C)C)C(C)C)c1nnc(C)n12` [Example 401, (S)-N-{4-[7-(2-methoxy-ethoxy)-1-methyl-[1,2,4]triazolo[4,3-a]quinoxaline-4-ylamino]-butyl}-3-methyl-2-(3-methyl-butyrylamino)-butyramide], the IC50 under setting [2] was ≤ 50 nM and the IC50 under setting [1] was 12 nM.
On to `COCCOc1ccc2c(c1)nc(NCCCCNC(=O)[C@@H](NC(=O)C(C)(C)C)C(C)C)c1nnc(C)n12` [Example 402, (S)-2-(2,2-dimethyl-propionylamino)-N-{4-[7-(2-methoxy-ethoxy)-1-methyl-[1,2,4]triazolo[4,3-a]quinoxaline-4-ylamino]-butyl}-3-methyl-butyramide], for which the IC50 under setting [2] was ≤ 50 nM and the IC50 under setting [1] came out at 18 nM.
Consider `COCCOc1ccc2c(c1)nc(NCCCCNC(=O)[C@@H](NC(=O)[C@@H](O)C(C)C)C(C)C)c1nnc(C)n12` [Example 404, 2-(S,S)-hydroxy-N-(1-{4-[7-(2-methoxy-ethoxy)-1-methyl-[1,2,4]triazolo[4,3-a]quinoxaline-4-ylamino]-butylcarbamoyl}-2-methyl-propyl)-3-methyl-butyramide], for which the IC50 under setting [2] was ≤ 50 nM and the IC50 under setting [1] came to 15 nM.
For the molecule `COCCOc1ccc2c(c1)nc(NCCCCNC(=O)[C@@H](NS(C)(=O)=O)C(C)C)c1nnc(C)n12` [Example 405, 2-(S)-methanesulfonylamino-{4-[7-(2-methoxy-ethoxy)-1-methyl-[1,2,4]triazolo[4,3-a]quinoxaline-4-ylamino]-butyl}-3-methyl-butyramide], the IC50 under setting [2] is ≤ 50 nM.
`COCCOc1ccc2c(c1)nc(NCCCCNC(=O)c1ccccn1)c1nnc(C)n12` [Example 416, pyridine-2-carboxylic acid-{4-[7-(2-methoxy-ethoxy)-1-methyl-[1,2,4]triazolo[4,3-a]quinoxaline-4-ylamino]-butyl}-amide]: the IC50 under setting [1] came out at 52 nM.
On to `COCCOc1ccc2c(c1)nc(NCCCCNC(=O)c1cccnc1)c1nnc(C)n12` [Example 417, N-{4-[7-(2-methoxy-ethoxy)-1-methyl-[1,2,4]triazolo[4,3-a]quinoxaline-4-ylamino]-butyl}-nicotinamide], for which the half-inhibitory concentration (IC50) under setting [1] was 60 nM.
Take `COCCOc1ccc2c(c1)nc(NCCCCNC(=O)c1ccncc1)c1nnc(C)n12` [Example 418, N-{4-[7-(2-methoxy-ethoxy)-1-methyl-[1,2,4]triazolo[4,3-a]quinoxaline-4-ylamino]-butyl}-isonicotinamide]: the IC50 runs as follows: under setting [2], ≤ 50 nM; under setting [1], 49 nM.
Turning to `CCNC(=O)NCCCCNc1nc2cc(OCCOC)ccc2n2c(C)nnc12` [Example 423, 1-ethyl-3-{4-[7-(2-methoxy-ethoxy)-1-methyl-[1,2,4]triazolo[4,3-a]quinoxaline-4-ylamino]-butyl}-urea], the concentration for half-maximal inhibition (IC50) under setting [2] was ≤ 50 nM and the IC50 under setting [1] worked out at 27 nM.
For `COCCOc1ccc2c(c1)nc(NCCCCNC(=O)NC(C)(C)C)c1nnc(C)n12` [Example 424, 1-tert-butyl-3-{4-[7-(2-methoxy-ethoxy)-1-methyl-[1,2,4]triazolo[4,3-a]quinoxaline-4-ylamino]-butyl}-urea], in that order: ≤ 50 nM and 25 nM.
Turning to `COCCOc1ccc2c(c1)nc(NCCCCNC(=O)N1CCOCC1)c1nnc(C)n12` [Example 425, morpholine-4-carboxylic acid-{4-[7-(2-methoxy-ethoxy)-1-methyl-[1,2,4]triazolo[4,3-a]quinoxaline-4-ylamino]-butyl}-amide], the IC50 runs as follows: under setting [2], ≤ 50 nM; under setting [1], 28 nM.
Turning to `COCCOc1ccc2c(c1)nc(NCCCCNC(=O)Nc1ccccc1)c1nnc(C)n12` [Example 427, 3-{4-[7-(2-methoxy-ethoxy)-1-methyl-[1,2,4]triazolo[4,3-a]quinoxaline-4-ylamino]-butyl}-1-phenyl-urea], the IC50 is, setting by setting: under setting [2], ≤ 50 nM; under setting [1], 17 nM.
On to `COCCOc1ccc2c(c1)nc(NCCCCNC(=O)SC(C)C)c1nnc(C)n12` [Example 428, {4-[7-(2-methoxy-ethoxy)-1-methyl-[1,2,4]triazolo[4,3-a]quinoxaline-4-ylamino]-butyl}-thiocarbamic acid-S-isopropylester], for which the IC50 is, setting by setting: under setting [2], ≤ 10 nM; under setting [1], 4 nM.
In the case of `Cc1nnc2c(NCCCCNC(=O)[C@H](O)C(C)C)nc3cc(OCCN4CCOCC4)ccc3n12` [Example 434, 2-(R)-hydroxy-N-{4-[7-(2-morpholine-4-yl-ethoxy)-1-methyl-[1,2,4]triazolo[4,3-a]quinoxaline-4-ylamino]-butyl}-3-methyl-butyramide], the half-maximal inhibitory concentration (IC50) is, setting by setting: under setting [2], ≤ 50 nM; under setting [1], 21 nM.
For `Cc1nnc2c(NCCCCNC(=O)OC(C)(C)C)nc3cc(OC(C)C)ccc3n12` [Example 447, [4-(7-isopropoxy-1-methyl-[1,2,4]triazolo[4,3-a]quinoxaline-4-ylamino)-butyl]-carbamic acid-tert-butylester], the IC50 runs as follows: under setting [2], ≤ 50 nM; under setting [1], 21 nM.
With `Cc1nnc2c(NCCCCN)nc3cc(OC(C)C)ccc3n12` [Example 448, N^1-(7-isopropoxy-1-methyl-[1,2,4]triazolo[4,3-a]quinoxaline-4-yl)-butane-1,4-diamine ditrifluoroacetic acid], the 50% inhibitory concentration (IC50) under setting [2] was ≤ 10 nM and the IC50 under setting [1] amounted to 5 nM.
As for `COc1cc(C)c2c(c1)nc(NCCCCNC(=O)OC(C)(C)C)c1nnc(C)n12` [Example 455, [4-(7-methoxy-1,9-dimethyl-[1,2,4]triazolo[4,3-a]quinoxaline-4-ylamino)-butyl]-carbamic acid-tert-butylester], the IC50 is, setting by setting: under setting [2], ≤ 50 nM; under setting [1], 31 nM.
Regarding `COc1cc(C)c2c(c1)nc(NCCCCN)c1nnc(C)n12` [Example 456, N^1-(7-methoxy-1,9-dimethyl-[1,2,4]triazolo[4,3-a]quinoxaline-4-yl)-butane-1,4-diamine ditrifluoroacetic acid], the IC50 under setting [1] worked out at 75 nM.
Turning to `COc1cc(C)c2c(c1)nc(NCCCCNC(=O)OC(C)C)c1nnc(C)n12` [Example 457, [4-(7-methoxy-1,9-dimethyl-[1,2,4]triazolo[4,3-a]quinoxaline-4-ylamino)-butyl]-carbamic acid-isopropylester], the half-maximal inhibitory concentration (IC50) under setting [2] is ≤ 50 nM.
As to `COc1ccc2c(nc(NCCCCNC(=O)OC(C)(C)C)c3nnc(C)n32)c1Cl` [Example 459, [4-(6-chloro-7-methoxy-1-methyl-[1,2,4]triazolo[4,3-a]quinoxaline-4-ylamino)-butyl]-carbamic acid-tert-butylester], the IC50 was ≤ 50 nM under setting [2] and 30 nM under setting [1].
Consider `COc1ccc2c(nc(NCCCCN)c3nnc(C)n32)c1Cl` [Example 460, dihydrochloride], for which the IC50 by setting is: under setting [2], ≤ 50 nM; under setting [1], 12 nM.
In the case of `COc1cc2nc(NCCCCNC(=O)OCC(C)C)c3nnc(C)n3c2cc1C(F)(F)F` [Example 474, [4-(7-methoxy-1-methyl-8-trifluoromethyl-[1,2,4]triazolo[4,3-a]quinoxaline-4-ylamino)-butyl]-carbamic acid isobutylester], the concentration for half-maximal inhibition (IC50) is ≤ 50 nM under setting [2] and 44 nM under setting [1].
